Experimental data reported in patent US11319305B2, “Pyrimidine sulfamide derivative and preparation method and medical application thereof” (SHIJIAZHUANG SAGACITY NEW DRUG DEVELOPMENT CO., LTD., priority 2017, dated 2022).

Assays:
[1] = biological target: T1, CYP3A4 (Homo sapiens, UniProt P08684); assay: Human liver microsomal cytochrome P450 isozyme inhibition assay, CYP3A4; assay type: in vitro ADME; settings: human liver microsomes
T1 construct: Mixed human liver microsomes (HLM) were purchased from Corning Inc; tissue Corning Inc; host or cells: pooled human liver microsomes
Description: (§1) Experimental Embodiment 4: Human Liver Microsomal Cytochrome P450 Isozyme Inhibition Assay The purpose of the assay was to evaluate the inhibitory activity of the samples against human liver microsomal cytochrome P450 isozyme (CYP1A2, CYP2C9, CYP2C19, CYP2D6 and CYP3A4) using the 5-in-1 probe substrate of the CYP isozyme. Mixed human liver microsomes (HLM) were purchased from Corning Inc. (Steuben, N.Y., USA) and stored below −80° C. before use. The test compound working solution which has been diluted into serial concentrations was added to an incubation system containing human liver microsomes, probe substrates and circulating system cofactors, and a control containing solvent without the test compound was used as the enzyme activity control (100%). The concentration of the metabolite produced by the probe substrate in the sample was determined using a liquid chromatography-tandem mass spectrometry (LC-MS/MS) method. Nonlinear regression analysis was performed on the average percent activity versus concentration of subjects using SigmaPlot (V.11). The IC50 value was calculated by a three-parameter or four-parameter inverse-logarithmic equation.

[2] = biological target: T2, CYP2D6 (Homo sapiens, UniProt P10635); assay: Human liver microsomal cytochrome P450 isozyme inhibition assay, CYP2D6; assay type: in vitro ADME; settings: human liver microsomes
T2 construct: Mixed human liver microsomes (HLM) were purchased from Corning Inc; tissue Corning Inc; host or cells: pooled human liver microsomes
Description: as §1

[3] = biological target: T3, CYP2C19 (Homo sapiens, UniProt P33261); assay: Human liver microsomal cytochrome P450 isozyme inhibition assay, CYP2C19; assay type: in vitro ADME; settings: human liver microsomes
T3 construct: Mixed human liver microsomes (HLM) were purchased from Corning Inc; tissue Corning Inc; host or cells: pooled human liver microsomes
Description: as §1

[4] = biological target: T4, Human Pregnane X Receptor (PXR) (Homo sapiens, UniProt O75469); assay: Human pregnane X receptor (PXR) assay, induction of PXR-mediated CYP3A expression in DPX2 cells; assay type: cell-based
T4 construct: host or cells: DPX2 cells
T4 sequence (O75469 1-434): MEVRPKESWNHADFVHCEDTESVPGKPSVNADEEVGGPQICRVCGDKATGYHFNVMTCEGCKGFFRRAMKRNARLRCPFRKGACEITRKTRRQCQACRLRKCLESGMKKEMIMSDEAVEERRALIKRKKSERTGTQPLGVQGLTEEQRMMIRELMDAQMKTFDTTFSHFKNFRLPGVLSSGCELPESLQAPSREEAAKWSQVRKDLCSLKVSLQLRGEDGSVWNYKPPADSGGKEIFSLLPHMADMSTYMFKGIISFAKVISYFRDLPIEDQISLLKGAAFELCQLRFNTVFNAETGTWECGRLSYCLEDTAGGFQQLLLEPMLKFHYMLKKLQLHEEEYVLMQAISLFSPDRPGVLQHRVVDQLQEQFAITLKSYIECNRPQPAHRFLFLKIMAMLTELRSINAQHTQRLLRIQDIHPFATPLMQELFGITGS
Description: Experimental Embodiment 3: Human Pregnane X Receptor (PXR) Assay
The effect of the compounds on the induction of PXR-mediated CYP3A expression was evaluated.
1. DPX2 cells were thawn under sterile conditions.
2. DPX2 cell solution was distributed in 96-well plate (100 μL/well), and the plate was placed in a 5% CO2/37° C. incubator overnight.
3. Quantitative feeding medium was thawn in a 37° C. water bath. Positive control rifampin was thawn at room temperature. A series of test compounds and positive control dilutions were prepared in quantitative feeding medium. The cells were carefully aspirated from each wells without disturbing the cells during aspiration and the medium was discarded. 100 μL of each test compound concentration was transferred to pre-labeled wells. The operation of the positive control group and the blank group were the same. The plate was placed back into the incubator for 24 hours exposure.
(1) 7 μL of Luciferin-IPA was added to […] feeding medium, the mixture was mixed by inverting, and poured into a Luciferin-IPA reagent tank.
(2) The 96-well plate was taken out from the incubator, and the media was carefully aspirated from each wells. 50 μL of the Luciferin-IPA reagent was added to each wells, and the cell plate was placed back into the incubator for 60 minutes.
(3) During incubation, the P450-Glo buffer was poured into the Luciferin detection reagent, and the mixture was mixed by inverting.
(4) The 96-well plate was taken out from the incubator, and 40 μL of solution from each well was transferred into the corresponding white 96-well plate, and the corresponding position of each wells was consistent with the original cell plate. […]
(8) After incubation with Luciferin detection reagent for 20 minutes, a photometer (set 1-5 seconds. Readout Time) was used to measure the luminescence of each wells of the white 96-well plate. […]
(10) After incubating for 60 minutes at 37° C., the original 96-well plate was taken out of the incubator. The reader was set to the fluorescence mode, the excitation wavelength was set to 380-400 nm, the emission wavelength was set to 505 nm, and the fluorescence intensity of each wells was measured.
(11) The cell plate was taken out of the enzyme reader, and 100 μL of ONE-Glo™ detection reagent was added to each wells. […]
(12) The enzyme reader was set to 5 seconds for pre-shaking and 5 seconds for wells reading, and the fluorescence intensity in each hole was measured. […]
The positive control was rifampicin, six concentrations were tested in each experiment. The data was analyzed using Prism to generate a concentration-response curve and the EC50 value of the compound was calculated.

[5] = system: human liver microsomal cytochrome P450 isozyme (CYP1A2, CYP2C9, CYP2C19, CYP2D6 and CYP3A4); assay: Human liver microsomal cytochrome P450 isozyme inhibition assay, summary over the main isozymes; assay type: in vitro ADME; settings: human liver microsomes
Description: as §1

[6] = biological target: T5, bile salt transport pump (BSEP) (Homo sapiens, UniProt O95342); assay: Inhibition test on bile salt transfer pump (BSEP), taurocholic acid uptake in BSEP-Hi5-VT vesicles; assay type: in vitro ADME
T5 construct: purchased Solvo Biotechnology SB-BSEP-Hi5-VT; host or cells: Hi5 insect cells (read from the product name; own knowledge)
Description: Prepared with buffer A, 8.16 mM ATP and 4.08 μM taurocholic acid were contained in 12 mL buffer A.
Prepared with buffer A, 8.16 mM AMP, 4.08 μM taurocholic acid 12 mL buffer A were contained in buffer A.
A solution containing BSEP-Hi5-VT 5 μg/μL was prepared with buffer A.
The compound was diluted to 100 mM with DMSO; then serially diluted 3-fold for an 11-point dilution; the minimum concentration was 0.169 μM.
Positive reference Glyburide was diluted to 20 mM with DMSO; then serially diluted 2-fold for an 11-point dilution; the minimum concentration was 19.5
0.3 μL of a solution of the compound in DMSO or a diluted DMSO solution were transferred into corresponding wells of the compound plate using ECHO, respectively.
14.7 μL of ATP buffer was added to the compound and the corresponding wells of zero percent effect (ZPE), respectively.
14.7 μL of AMP buffer was added to the corresponding wells of 100% effect (HPE), respectively.
The plate was shaked for 10 minutes at 25° C.
15 μL of BSEP-H15-VT Vesicle solution was added to all wells, respectively, and the plate was shaked for another 40 minutes at 25° C.
6.5 μL 0.5 M ethylenediaminetetraacetic acid (EDTA) solution was added to all wells immediately, followed by addition of 65 μL of buffer B, and the whole reaction was completed.
7.95 μL of liquid was transferred to the filter plate from the compound plate at the end of the reaction using an instrument.
After placing the liquid receiving plate under the filter plate, the liquid was removed using a centrifuge and the receiving plate liquid was discarded.
9.90 μL of buffer B was added to the filter plate. After placing the liquid receiving plate under the filter plate, the liquid was removed using a centrifuge, and the receiving plate liquid was discarded, and filter plate was washed for three times in total.
The filter plate was dried overnight.
On the next day, 80 μL of methanol/water (80/20, volume ratio) solution was added to the filter plate.
The plate was shaked for 15 minutes after the filter plate was attached to the membrane.
A new liquid receiving plate was placed under the filter plate, and the filter plate was centrifuged for 5 minutes, and all liquids in the filter plate were filtrated into the receiving plate.
15 μL of internal standard solution was added to each wells in the liquid receiving plate, and the plate was sealed with a membrane.
The content of taurocholic acid in the receiving plate was detected using LC/MS/MS.
Several concentrations were tested in each experiments. The data were analyzed using Prism to generate a concentration-response curve, and IC50 values of the compounds were calculated.

[7] = biological target: T6, CYP1A2 (Homo sapiens, UniProt P05177); assay: Human liver microsomal cytochrome P450 isozyme inhibition assay, CYP1A2; assay type: in vitro ADME; settings: human liver microsomes
T6 construct: Mixed human liver microsomes (HLM) were purchased from Corning Inc; tissue Corning Inc; host or cells: pooled human liver microsomes
T6 sequence (P05177 1-516): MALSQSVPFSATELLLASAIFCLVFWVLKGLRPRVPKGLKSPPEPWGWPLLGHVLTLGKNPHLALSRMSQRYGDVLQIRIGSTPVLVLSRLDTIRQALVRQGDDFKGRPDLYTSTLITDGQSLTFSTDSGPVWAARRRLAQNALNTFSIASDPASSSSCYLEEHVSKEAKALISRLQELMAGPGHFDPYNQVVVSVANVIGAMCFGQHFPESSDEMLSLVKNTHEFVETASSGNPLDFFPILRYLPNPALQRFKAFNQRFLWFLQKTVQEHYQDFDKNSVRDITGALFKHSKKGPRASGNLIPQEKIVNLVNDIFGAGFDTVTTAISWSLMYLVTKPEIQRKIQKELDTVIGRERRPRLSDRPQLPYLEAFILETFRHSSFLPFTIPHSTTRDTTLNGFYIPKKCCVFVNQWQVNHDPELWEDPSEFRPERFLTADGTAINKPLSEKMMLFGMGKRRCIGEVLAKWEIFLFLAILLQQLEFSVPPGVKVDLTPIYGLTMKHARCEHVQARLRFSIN
Description: as §1

[8] = biological target: T7, CYP2C9 (Homo sapiens, UniProt P11712); assay: Human liver microsomal cytochrome P450 isozyme inhibition assay, CYP2C9; assay type: in vitro ADME; settings: human liver microsomes
T7 construct: Mixed human liver microsomes (HLM) were purchased from Corning Inc; tissue Corning Inc; host or cells: pooled human liver microsomes
Description: as §1

T5 sequence (O95342 whole entry): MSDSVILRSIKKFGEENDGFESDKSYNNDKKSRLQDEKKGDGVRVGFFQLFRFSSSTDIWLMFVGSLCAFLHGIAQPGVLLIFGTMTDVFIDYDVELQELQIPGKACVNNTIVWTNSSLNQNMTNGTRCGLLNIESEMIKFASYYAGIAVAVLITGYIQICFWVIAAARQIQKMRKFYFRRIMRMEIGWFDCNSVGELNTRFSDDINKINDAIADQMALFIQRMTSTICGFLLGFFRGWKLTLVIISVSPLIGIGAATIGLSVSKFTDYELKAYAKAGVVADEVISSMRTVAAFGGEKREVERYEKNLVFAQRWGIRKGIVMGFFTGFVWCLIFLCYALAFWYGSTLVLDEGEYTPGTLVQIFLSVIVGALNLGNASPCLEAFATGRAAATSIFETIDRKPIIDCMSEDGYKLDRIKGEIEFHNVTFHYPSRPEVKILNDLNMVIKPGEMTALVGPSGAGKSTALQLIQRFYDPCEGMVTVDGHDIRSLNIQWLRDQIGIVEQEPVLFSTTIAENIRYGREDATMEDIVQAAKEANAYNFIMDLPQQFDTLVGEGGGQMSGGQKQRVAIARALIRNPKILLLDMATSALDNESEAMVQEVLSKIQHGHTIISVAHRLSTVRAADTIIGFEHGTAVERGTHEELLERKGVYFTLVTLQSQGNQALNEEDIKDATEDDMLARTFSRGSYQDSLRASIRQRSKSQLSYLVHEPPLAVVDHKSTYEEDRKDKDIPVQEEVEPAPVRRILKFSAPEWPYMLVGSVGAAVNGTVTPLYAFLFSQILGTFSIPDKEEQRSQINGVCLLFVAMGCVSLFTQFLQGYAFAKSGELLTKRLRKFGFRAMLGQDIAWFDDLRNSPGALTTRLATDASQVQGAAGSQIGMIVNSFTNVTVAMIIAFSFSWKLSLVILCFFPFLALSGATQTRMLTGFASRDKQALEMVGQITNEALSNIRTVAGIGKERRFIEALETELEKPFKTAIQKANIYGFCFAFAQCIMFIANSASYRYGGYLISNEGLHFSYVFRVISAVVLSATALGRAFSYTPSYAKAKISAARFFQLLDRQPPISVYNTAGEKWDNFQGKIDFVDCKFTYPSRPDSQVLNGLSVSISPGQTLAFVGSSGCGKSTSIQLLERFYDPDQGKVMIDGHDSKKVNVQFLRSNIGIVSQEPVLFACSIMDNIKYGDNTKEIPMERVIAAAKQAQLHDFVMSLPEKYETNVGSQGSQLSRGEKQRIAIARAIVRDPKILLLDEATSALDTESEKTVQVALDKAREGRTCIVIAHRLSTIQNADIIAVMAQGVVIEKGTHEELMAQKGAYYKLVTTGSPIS
T7 sequence (P11712 whole entry): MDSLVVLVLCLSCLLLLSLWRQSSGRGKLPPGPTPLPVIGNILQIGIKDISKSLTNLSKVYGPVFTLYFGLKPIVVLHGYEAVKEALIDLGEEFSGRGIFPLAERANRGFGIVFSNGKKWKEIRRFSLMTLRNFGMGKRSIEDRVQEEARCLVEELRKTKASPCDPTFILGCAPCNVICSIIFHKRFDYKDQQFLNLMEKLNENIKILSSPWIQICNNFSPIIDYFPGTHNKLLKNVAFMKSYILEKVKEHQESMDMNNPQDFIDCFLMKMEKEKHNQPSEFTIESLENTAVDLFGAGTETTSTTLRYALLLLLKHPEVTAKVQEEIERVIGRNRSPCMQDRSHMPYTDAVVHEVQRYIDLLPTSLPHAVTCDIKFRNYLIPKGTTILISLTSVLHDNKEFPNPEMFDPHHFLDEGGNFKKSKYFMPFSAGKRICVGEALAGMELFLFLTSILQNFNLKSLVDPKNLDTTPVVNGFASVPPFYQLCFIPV
T3 sequence (P33261 whole entry): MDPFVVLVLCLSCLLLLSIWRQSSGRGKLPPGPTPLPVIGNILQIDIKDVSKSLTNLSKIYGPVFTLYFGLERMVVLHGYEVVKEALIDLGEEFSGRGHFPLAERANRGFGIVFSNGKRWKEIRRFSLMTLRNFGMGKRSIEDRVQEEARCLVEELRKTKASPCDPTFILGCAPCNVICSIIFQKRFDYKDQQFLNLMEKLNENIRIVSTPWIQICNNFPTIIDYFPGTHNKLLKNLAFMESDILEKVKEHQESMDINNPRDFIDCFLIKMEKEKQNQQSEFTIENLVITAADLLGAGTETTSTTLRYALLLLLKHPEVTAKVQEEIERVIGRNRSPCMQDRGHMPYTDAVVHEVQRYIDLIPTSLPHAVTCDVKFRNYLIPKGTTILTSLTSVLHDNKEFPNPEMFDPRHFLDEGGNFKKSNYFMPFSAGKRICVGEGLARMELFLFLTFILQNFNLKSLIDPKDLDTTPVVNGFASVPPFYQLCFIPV
T2 sequence (P10635 whole entry): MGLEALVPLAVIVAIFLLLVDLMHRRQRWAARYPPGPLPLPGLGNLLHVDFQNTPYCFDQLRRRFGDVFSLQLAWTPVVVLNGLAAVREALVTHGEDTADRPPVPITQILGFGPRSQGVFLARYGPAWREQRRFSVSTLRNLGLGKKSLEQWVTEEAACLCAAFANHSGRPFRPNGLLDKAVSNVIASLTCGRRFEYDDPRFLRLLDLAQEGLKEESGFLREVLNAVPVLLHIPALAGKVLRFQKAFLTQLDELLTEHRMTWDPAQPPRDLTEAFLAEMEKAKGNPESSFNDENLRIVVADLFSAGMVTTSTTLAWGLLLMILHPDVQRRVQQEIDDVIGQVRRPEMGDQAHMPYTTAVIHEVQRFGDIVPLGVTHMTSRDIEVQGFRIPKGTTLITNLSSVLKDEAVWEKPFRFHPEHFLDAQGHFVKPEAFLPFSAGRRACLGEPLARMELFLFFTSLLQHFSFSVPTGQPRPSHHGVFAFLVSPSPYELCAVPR
T1 sequence (P08684 whole entry): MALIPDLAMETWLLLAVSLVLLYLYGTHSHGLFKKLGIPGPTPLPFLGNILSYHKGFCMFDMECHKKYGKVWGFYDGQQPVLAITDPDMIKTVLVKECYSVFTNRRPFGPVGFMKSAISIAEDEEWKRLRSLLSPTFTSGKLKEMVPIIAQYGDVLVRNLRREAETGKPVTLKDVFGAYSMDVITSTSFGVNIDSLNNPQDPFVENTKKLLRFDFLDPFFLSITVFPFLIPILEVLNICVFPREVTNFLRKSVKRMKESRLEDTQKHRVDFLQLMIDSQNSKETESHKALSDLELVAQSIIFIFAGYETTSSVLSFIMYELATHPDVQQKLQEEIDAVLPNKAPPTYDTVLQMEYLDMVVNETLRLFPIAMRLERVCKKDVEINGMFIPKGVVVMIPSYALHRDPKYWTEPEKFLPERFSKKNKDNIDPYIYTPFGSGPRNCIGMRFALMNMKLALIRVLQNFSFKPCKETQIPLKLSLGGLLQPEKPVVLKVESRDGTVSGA

CCCNS(=O)(=O)Nc1ncnc(OCCOc2ncc(Br)cn2)c1-c1ccc(Br)cc1 [macitentan, reference compound]
IC50 [1]: 23 µM
IC50 [2]: > 50 µM
IC50 [3]: 31 µM
induction effect on PXR-mediated CYP3A expression (in words) [4]: relatively strong induction effect
EC50 ([4]; DPX2 cells, 24 hours exposure, ± is calculation error of simulation curve, read-out: EC50, induction effect on PXR-mediated CYP3A expression): 6.34 ± 0.17 µM
inhibitory effects on four main isozymes of CYP (in words) [5]: weak
inhibitory effect on the bile salt transport pump (BSEP) (in words) [6]: strong
IC50 ([6]; substrate taurocholic acid, read-out: IC50, inhibitory effect on the bile salt transport pump (BSEP)): 0.281 µM
IC50 [7]: 37 µM
IC50 [8]: 7.5 µM
inhibitory effects on the isozymes CYP2C9 (in words) [8]: moderate
